The values that follow come from publication PMC5431684, “Zwitterionic near infrared fluorescent agents for noninvasive real-time transcutaneous assessment of kidney function” (Chemical Science, 2017).

As usually defined, the fraction unbound is the share of the substance not bound to proteins or other matrix.

Series [1] is described as follows: Transcutaneous measurement of elimination kinetics in healthy rats. The following applies: for Transcutaneous elimination (clearance) curve, in words: i.v. injection. The format is in vivo, Sprague Dawley rats. As to the method: (§1) The principles and methods of the transcutaneous technique are described in Fig. S10. ^† Firstly, as a control, IRDye800CW was chosen to be injected intravenously into rats and its elimination curves were measured transcutaneously. […] A long retention time of IRDye800CW in vivo was attributed to its higher PPB (41%) and negative charge feature, leading to skin accumulation and slow renal excretion. […] To assess whether the anionic agent ABANCY-HPβCD is reabsorbed or secreted by organic anion transporter (OAT) proteins in the kidney tubules, probenecid, an inhibitor of OAT proteins,[18] was administered (30 min prior to injection of ABANCY-HPβCD) to block tubular reabsorption and the secretion pathway, then, elimination curves were measured for the same rats. […] We also measured the cationic HPβCD based agent in the same manner and the results are similar to those of anionic HPβCD based agents. Next, the free dye ABZWCY was injected intravenously and its elimination curves were also recorded transcutaneously. […] This is in agreement with their similar PPB values (∼20%). To determine whether ABZWCY has tubular reabsorption or secretion in addition to filtration, probenecid was administered to block tubular reabsorption and the secretion pathway. […]
(§2) 8. Principle and methods for transcutaneous measurements of kidney function The transcutaneous assessment of renal function is based on the measurement of the fluorescence signal of a marker through the skin. A miniaturized transcutaneous device is comprised of two light emitting diodes (LEDs) and one photodiode (Figure S10a and 10b). The LEDs can blink every few seconds to excite a fluorescent marker using excitation wavelength of 700 nm. The fluorescent signal will be recorded by detecting the emission intensity of a fluorescent marker at 790 nm. Data are stored in the device and can be read out after measurement.[6] The clearance half-life of fluorescent agents was calculated by software, which was developed by the Institute of Medical Technology of the University of Heidelberg.[7] For this a 3-exponential function was fitted to the measured elimination curve, the peak of the curve was supposed to be 100%. Also a 1-exponential function was applied from 50% to 15% of the peak […]
(§3) Figure. S10. (a) Transcutaneous device and battery used for the transcutaneous measurement, the photodiodes and LEDs in the device. (b) A schematic overview of the excitation and emission light between a transcutaneous device and fluorescent agents in capillary vessel after injection. (c-g) The fixation procedures of a transcutaneous device on the skin and measurements in a […]
(§4) Healthy Sprague Dawley rats (Body weight: 250-300 g, 8-10 weeks) were anesthetized for a short period with Isoflurane (Forene®, AbbVie, Illinois, USA; Dosage: 5 %; Flow(O2): 5 L/min) in order to fix the transcutaneous device on the back of rats. The back of the animals was depilated with an electric shaver (Figure 10c-g). After a baseline measurement for around 5 min, a fluorescent agent in saline (DeltaSelect, GmbH, Rimbach, Germany) was injected as a bolus by tail vein injection. […] The devices were removed and the data were read out after 120 min of transcutaneous measurement. The clearance half-life of fluorescent agents was calculated by software. […]

Series [2] concerns plasma protein. The following applies: cited from earlier work.
Series [3] is described as follows: Plasma protein binding (PPB) by equilibrium dialysis. The series is classed as in vitro ADME, Sprague Dawley rat. Conditions: Sprague Dawley, rat, plasma (Li-Heparin), equilibrium dialysis of PBS against dye-plasma stock, 37°C, UV absorption. The source says: (§5) The interaction between fluorescent dyes and plasma proteins is particularly important as it affects the capability of the dyes as GRF agents in the following aspects: bio-distribution and clearance pathways as well as the rate of excretion in vivo.[15] […] ABCACY and AACACY display 54.5% and 60% PPB, respectively. […] Additionally, PPB is not only dependent on the dye hydrophilicity, but is also related to the molecular charge number and distribution. Since albumin is alkalotic, acidic agents will preferentially bind to albumin, then to lipoprotein after albumin becomes saturated. Basic agents will bind to the acidic alpha-1 acid glycoprotein.[17] Thus, anionic and cationic compounds are more inclined to bind to proteins than zwitterionic compounds. Therefore, we will mainly focus on zwitterionic compounds in the following parts.
5. […]
(§6) PPB measurements were performed by equilibrium dialysis of PBS against dye-protein stock solution (or control stock solution) using a two-chamber dialysis set-up. After 24 hours the absorption of each of the dyes or agents in PBS and plasma were determined in three independent measurements by both absorption spectroscopy and fluorescence spectroscopy in a microplate reader. The concentrations of each of the dyes or agents were calculated on the basis of the corresponding molar absorption coefficients. […] PPB in percent [%] was determined by averaging three independent measurements and following the equation of Lambert Beer law: […]
(§7) ABZWCY-HPβCD (1 mg/mL in PBS), SD rat plasma (50% in PBS), ABZWCY-HPβCD (1 mg/mL) mixed with SD rat plasma (50% in PBS) were prepared and filtered through a sterile 0.22 μm filter before analysis. […] The measurements were carried out in quadratic cells and analyzed the scattered light at an angle of 90° at a controlled temperature (25 °C). […] The apparent hydrodynamic radius was calculated according to the Stokes-Einstein […]
On the technique in general: In equilibrium dialysis only unbound substance equilibrates across the membrane.

Series [4] relates to Sprague Dawley rat plasma. The description is as above. The series is classed as in vitro ADME. The following applies: equilibrium dialysis of PBS against dye-plasma stock, 37°C, 24 hours, UV absorption.
Excerpt: as §5
5. […]
as §6, §7

Series [5] has as its system organic anion transporter (OAT) proteins. Nature of the series: Transcutaneous measurement of elimination kinetics in healthy rats. The series is classed as in vivo, Sprague Dawley rats. The following applies: Sprague Dawley, rat, skin (transcutaneous fluorescence signal), ip; healthy rats, 50 mg/kg probenecid i.p. 30 min prior to injection, transcutaneous; read-out: T 1/2 with probenecid (clearance half-life). As to the method:
as §1, §2, §3, §4

A short description of series [6]: Urinary recovery of injected dose (metabolic cages). The series is classed as in vivo, Sprague Dawley rats. Here is the method:
With this in mind, we investigated the recoveries of injected doses using in vivo experiments with metabolic cages. High urinary recoveries were determined for the free dye ABZWCY and its mixture with HPβCD (99.4 ± 4.8% and 96.5 ± 5.8%, respectively, Fig. 4 and Tables 2 and S6 ^†). Similar tendencies of urinary recoveries of ABZWCY-HPβCD and AAZWCY-HPβCD with values of 97 ± 3.9% and 103.3 ± 4.2%, respectively, were also observed (Fig. 4, and Tables 2 and S7 ^†). Indeed, urinary recoveries of the given dose were almost completed at 9 h post-injection for ABZWCY-HPβCD and AAZWCY-HPβCD, which is faster than the free dye ABZWCY and in agreement with their shorter clearance half-life.
All experiments were conducted in accordance with the German Animal Protection Law and approved by the local authority (Regierungspräsidium Nordbaden, Karlsruhe Germany in agreement with EU guideline 2010/63/EU). […]
10. Urinary recovery of injected dose in urine studies
Recovery of the injected dose in urine studies were conducted in conscious, healthy Sprague Dawley rats (Body weight: 250-300 g). The corresponding test agents with corresponding dosage (ABZWCY: 2.5 mg/kg, ABZWCY mixed with HPβCD: 2.5 mg/kg mixed with 22.5 mg/kg (HPβCD), ABZWCY-HPβCD and AAZWCY-HPβCD: 50 mg/kg) were administered by tail vein injection. Urine was collected using metabolic cages in intervals of 1, 2, 3, 6, 9, 24 h after intravenous injection of agents into rats. The samples were stored at -20°C until they were analyzed. The urine samples were centrifuged for 8 min at 13000 ×g and then filtered by 0.22 μm syringe filter. A series of working solution of each agent with concentrations between 0.02 mg/mL and 2 mg/mL were prepared. Appropriate volumes of the working solutions were added to blank urine and fluorescent intensity of those mixtures were measured in order to obtain an external calibration curve. Quantification of each of the agents in urine at each time point was performed via HPLC analysis and fluorescence intensity detection. The concentration in urine at each time point was calculated based on the external calibration standards curve between fluorescence intensity and the concentration of each of the agents.
Considering biological components within urine may interfere with the fluorescent intensity of agents, the fluorescent intensity of agent were tested to study whether there is difference in urine and PBS, the emission intensity and calibration curve are compared (Figure S11). The results […]
This slightly difference can explained the urinary recoveries have some trial a little over 100% (Table S6 and S7), which can be found in other literatures studies. […]

Values joined by “and” are separate entries in the source; they are usually repeats but may differ in a detail not shown here. Identical values can stand only once. Like-named read-outs stand apart in the source and are kept apart here.

For `CC1(C)C(/C=C/C2=C(Oc3ccc(S(=O)(=O)O)cc3)C(=C/C=C3/N(CCCCS(=O)(=O)O)c4ccc(S(=O)(=O)[O-])cc4C3(C)C)/CCC2)=[N+](CCCCCC(=O)O)c2ccc(S(=O)(=O)O)cc21` [IRDye800CW, reference compound], in series [1] (healthy rats), the “Transcutaneous elimination (clearance) curve, in words” value is listed as “no decay even at 90 min post-injection”. Further, the PPB in series [2] (previous study of the authors) is recorded as 41%.

Consider `CNC(=O)c1c(I)c(NC(C)=O)c(I)c(C(=O)O)c1I` [iothalamate], for which the PPB in series [2] ('gold standard' renal function agent) is 9.5%.

In turn, `CC1(C)C(/C=C/C2=C(Nc3ccc(CCC(=O)O)cc3)C(=C/C=C3/N(CCC[N+](C)(C)C)c4ccc(S(=O)(=O)O)cc4C3(C)C)/CCC2)=[N+](CCC[N+](C)(C)C)c2ccc(S(=O)(=O)O)cc21` [ABZWCY] had a fraction unbound at 24 h, 0.2 mg/mL in series [3] of around 0.8. Moreover, the PPB in series [4] worked out at 19%. Moreover, the half-life in series [1] (Sprague Dawley, rat, skin (transcutaneous fluorescence signal), iv, 2.5 mg/kg, healthy rats 8-10 weeks, i.v. bolus, transcutaneous measurement, read-out: T 1/2 without probenecid (clearance half-life)) worked out at 52.6 ± 8.8 min; in series [5], 48.7 ± 5.4 min. The “Tubular reabsorption or secretion in the kidneys (from probenecid effect)” value in series [1] (healthy rats, half-life with versus without probenecid) was “tubular reabsorption or secretion is a minor factor”. Besides, the “Transcutaneous elimination (clearance) curve, in words” value in series [1] (healthy rats) was “did not return to background levels at 2 h post-injection”. Also, the dose excreted in series [6] (Sprague Dawley, rat, urine, iv, 2.5 mg/kg, healthy rats, i.v., mean ± SD, n = 3, read-out: Urinary recovery in 24 h) was 99.4 ± 4.8%. Also, the dose excreted at 1 h in series [6] (Sprague Dawley, rat, urine, iv, 2.5 mg/kg, individual rats, cumulative, time 1 h after i.v. injection) is 46.7%. For the same compound, the dose excreted at 2 h in series [6] (Sprague Dawley, rat, urine, iv, 2.5 mg/kg, individual rats, cumulative, time 2 h after i.v. injection) came to 65%. The compound also had a dose excreted at 6 h in series [6] (Sprague Dawley, rat, urine, iv, 2.5 mg/kg, individual rats, cumulative, time 6 h after i.v. injection) of 87.2%. Moreover, in series [6] (Sprague Dawley, rat, urine, iv, 2.5 mg/kg, individual rats, cumulative, time 9 h after i.v. injection), the dose excreted at 9 h turned out to be 96.9%. For the same compound, in series [6] (Sprague Dawley, rat, urine, iv, 2.5 mg/kg, individual rats, cumulative, time 24 h after i.v. injection), the dose excreted at 24 h was found to be 98.3%. In addition, the “Urinary recovery at 1 h” value in series [6] (individual rats, cumulative, time 1 h after i.v. injection) was 53.33% and 49.29%. Also, the “Urinary recovery at 2 h” value in series [6] (individual rats, cumulative, time 2 h after i.v. injection) amounted to 73.06%. For the same compound, the “Urinary recovery at 6 h” value in series [6] (individual rats, cumulative, time 6 h after i.v. injection) is 81.95% and 89.05%. Besides, the “Urinary recovery at 9 h” value in series [6] (individual rats, cumulative, time 9 h after i.v. injection) is listed as 86.39%. Also, the “Urinary recovery at 24 h” value in series [6] (individual rats, cumulative, time 24 h after i.v. injection) was 93.3% and 106.6%.

In turn, `CC1(C)C(/C=C/C2=C(Nc3ccc(CCN=[N+]=[N-])cc3)C(=C/C=C3/N(CCC[N+](C)(C)C)c4ccc(S(=O)(=O)O)cc4C3(C)C)/CCC2)=[N+](CCC[N+](C)(C)C)c2ccc(S(=O)(=O)O)cc21` [AAZWCY] had a fraction unbound at 24 h, 0.2 mg/mL in series [3] of 0.843.

Consider `CC1(C)C(/C=C/C=C/C=C/C=C2\N(CCCCS(=O)(=O)O)c3ccc4ccccc4c3C2(C)C)=[N+](CCCCS(=O)(=O)[O-])c2ccc3ccccc3c21` [ICG, indocyanine green], for which the PPB in series [2] is reported as 99%.
